Measured values: patent US12655126B2, “Imidazole-pyrazole derivatives as antibacterials” (Hoffmann-La Roche Inc., priority 2020, dated 2026)
Counter-ions that a name gives are not always drawn.

System: Acinetobacter baumannii ATCC17961
Assay: Antimicrobial susceptibility testing: 90% growth inhibitory concentration (IC90) determination
Assay type: cell-based
Conditions: Acinetobacter baumannii ATCC17961; Iso-Sensitest broth; growth by OD 600 nm over 16 h; 90% growth inhibitory concentration; read-out: ATCC 17961 IC90
How it was run: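 Broth microdilution in Iso-Sensitest medium with twofold dilutions (e.g. 50 to 0.097 μM final) and inoculum ~5×10^(5) CFU/ml, 35±2 °C. OD600 was followed for 16 h; IC90 was derived from inhibition during logarithmic growth.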

SMILES | IC90
CNc1ccc(-n2cc(-c3cnc(C(=O)Nc4ccc(C(=O)N5CCN(C(=O)[C@@H]6[C@@H](O)CC[N+]6(C)C)CC5)c(Cl)c4)n3C)c(C(F)(F)F)n2)nc1 [Example E6, N-[3-chloro-4-[4-[(2S,3S)-3-hydroxy-1,1-dimethyl-pyrrolidin-1-ium-2-carbonyl]piperazine-1-carbonyl]phenyl]-1-methyl-5-[1-[5-(methylamino)-2-pyridyl]-3-(trifluoromethyl)pyrazol-4-yl]imidazole-2-carboxamide; formate] | 0.37 µM
Cc1nn(-c2ccc(N)cn2)cc1-c1cnc(C(=O)Nc2ccc(C(=O)N3CCN(C(=O)C4CC[N+](C)(C)CC4)CC3)c(Cl)c2)n1C [Example J3, 5-[1-(5-amino-2-pyridyl)-3-methyl-pyrazol-4-yl]-N-[3-chloro-4-[4-(1,1-dimethylpiperidin-1-ium-4-carbonyl)piperazine-1-carbonyl]phenyl]-1-methyl-imidazole-2-carboxamide; formate] | 10 µM
